Test [1] deals with Arabidopsis. Briefly: Anthocyanin quantification, Arabidopsis 96-well plate. The conditions noted are these: low phosphate, 50 μM, 7 days after germination, control = 1. In kind it is in vivo, Arabidopsis thaliana. The protocol: Col-0 ecotype Arabidopsis seeds were sown in 96-well plates containing 150 μl of low phosphate modMS liquid medium containing 1% of sucrose. Compounds was added in 50 μM concentration (1% DMSO). Eight plants per repeat were collected 7 days after germination and put into a fresh Eppendorf. Extraction and quantification of anthocyanin levels was carried out according to The Plant cell 2013, 25:1641-1656. Anthocyanin levels were quantified by measuring absorption at 530 and 657 nm using a spectrophotometer and normalized to fresh weight input, and expressed relative to the low phosphate control. For pot experiments, the same procedure was followed with one 4-week old plant per sample.

Test [2] has as its system Arabidopsis root hairs. Briefly: Root hair number and length quantification. It counts as in vivo, Arabidopsis thaliana. The protocol: (§1) All Arabidopsis plant experiments were performed using the Arabidopsis thaliana Columbia-0 background. The Arabidopsis pSPX1::GUS line is described in the Plant Journal 2008, 54: 965-975. For rice, the cultivar Nipponbare was used. For maize, the cultivars DKC 2931 and B104 were used for regular pot experiments and sand-based pot experiments, respectively. For soybean, the cultivar Primus was used. […] The medium was solidified due to the addition of 0.6% Gelrite, unless stated otherwise. In case of vertical plates (root length and root hair measurements), the medium was supplied with 0.5% of sucrose and 1 μM (low phosphate, 1 μM KH2PO4, 9.9 mM KCl), 10 μM (low phosphate 10 μM KH2PO4, 9.9 mM KCl) or 1.25 mM KH2PO4 (high phosphate). Arabidopsis seeds were stratified for 2 days at 4° C. before germination. Seedlings were germinated in climate-controlled growth chambers at 22° C. under continuous light (100 μmol m^−2 s^−1). Husked rice seeds were germinated on wetted Whatman paper for 2 days at 37° C. and then transferred to Sterivent boxes or square Petri dishes with solid medium. Maize and soybean seeds were wetted 24 hours at room temperature prior to sowing in pots.
Roots were imaged using a stereomicroscope or a VHX-6000. Number and length of the root hairs parallel to the medium surface was determined at 4 to 6 mm above the root meristem. Root hair length was measured using the ImageJ software.

In test [3] the test system is Arabidopsis. In words: Arabidopsis vertical plate growth assay (primary root length, shoot biomass). It counts as in vivo, Arabidopsis thaliana. The conditions noted are these: 10 μM, low phosphate. The protocol: as §1
(§2) Arabidopsis primary root growth experiments were done on MS1/2 on vertical standing plates and roots were measured 11 days after germination. Roots were imaged using a flatbed scanner (EPSON Expression 11000XL) and root length was measured using ImageJ software. Arabidopsis shoot biomass was determined in 11 days after germination and growth on vertical standing plates with modMS. Arabidopsis leaf area was measured 21 days after germination on horizontal plates with modMS medium. Plates were scanned from the top using a flatbed scanner (EPSON Expression 11000XL) and the visible leaf area was measured using ImageJ software. Rice plate experiments used vertically standing Petri dishes containing MS1/2 medium (low phosphate—0.001 mM) solidified with 0.8% washed agar. Plant height was measured 11 days after germination. […] Plant height was measured 13 days after germination. […]

The subject of test [4] is SPX1 phosphate starvation biomarker. In words: Chemical activity assessment with Arabidopsis pSPX1::GUS reporter line (GUS stained area). It counts as in vivo, Arabidopsis thaliana. The protocol: as §1
For the chemical activity assessment 3 to 8 seeds per well of Arabidopsis pSPX1::GUS line were sown in 96-well plates containing 150 μl of low phosphate modMS liquid medium containing 1% of sucrose. Compounds were added in 50 μM concentration, starting from a 5 mM stock of compounds solved in DMSO. Different chemical substances were separately added to different wells. Per plate, 16 control wells were used, 8 containing only the low phosphate medium and 1% DMSO, and 8 containing high phosphate medium and 1% DMSO. 7 days after germination, plates were scanned using a flatbed scanner (EPSON Expression 11000XL) and analyzed for leaf size. After scanning, the growth medium was replaced by GUS staining solution (see Plant Mol. Biol. Rep. 1994, 12: 37-42 for details) and incubated for 1.5 hours at 37° C. The plates were scanned a second time and analyzed for GUS signal area. Measurements of both leaf area and GUS signal area were conducted by filtering out and measure the green and blue signal, respectively using ImageJ software. If the green leaf area was 50% or less than the control, samples were omitted. Additionally, all results were visually screened for leaf size and GUS signal.

The subject of test [5] is Rice. In words: Rice box experiment. In kind it is in vivo, rice cultivar Nipponbare. The conditions noted are these: low phosphate 0.025 mM, 10 μM, 13 days after germination, control 1.1. How it is done: All Arabidopsis plant experiments were performed using the Arabidopsis thaliana Columbia-0 background. The Arabidopsis pSPX1::GUS line is described in the Plant Journal 2008, 54: 965-975. For rice, the cultivar Nipponbare was used. For maize, the cultivars DKC 2931 and B104 were used for regular pot experiments and sand-based pot experiments, respectively. For soybean, the cultivar Primus was used. […] The medium was solidified due to the addition of 0.6% Gelrite, unless stated otherwise. […]
as §2, with “Rice plate experiments used vertically standing Petri dishes containing MS1/2 medium (low phosphate—0.001 mM) solidified with 0.8% washed agar.” left out

With `CC1CN(CC(=O)c2c(N)n(C)c(=O)n(C)c2=O)c2ccccc2O1` (stereo not drawn) [Compound 8, 6-amino-1,3-dimethyl-5-[2-(2-methyl-2,3-dihydro-1,4-benzoxazin-4-yl)acetyl]pyrimidine-2,4-dione], in test [1], the Relative anthocyanin level stood at 0.6. Moreover, in test [2] (Arabidopsis thaliana, 0.6 μM, read-out: Total root hair length per root (in % compared to the control)), the activity at 0.6 µM stood at 104%. Besides, the activity at 1.25 µM in test [2] (Arabidopsis thaliana, 1.25 μM, read-out: Total root hair length per root (in % compared to the control)) was 333%. In test [2] (Arabidopsis thaliana, 2.5 μM, read-out: Total root hair length per root (in % compared to the control)), the activity at 2.5 µM turned out to be 347%. For the same molecule, the activity at 5 µM in test [2] (Arabidopsis thaliana, 5 μM, read-out: Total root hair length per root (in % compared to the control)) came to 485%. The activity at 10 µM in test [2] (Arabidopsis thaliana, 10 μM, read-out: Total root hair length per root (in % compared to the control)) amounted to 586%. Besides, in test [2] (Arabidopsis vertical plate, high phosphate, control 0.11), the “Average root hair length per root in high phosphate conditions” value is 0.32 mm. In addition, in test [2] (Arabidopsis vertical plate, high phosphate, control 3), the “Root hair number in high phosphate conditions (one plane in 2 mm region)” value came out at 9. Moreover, the “Total root hair length per root in high phosphate conditions” value in test [2] (Arabidopsis vertical plate, high phosphate, control 57) was 183 cm. Also, the “Primary root length versus control without compound” value in test [3] (11-day-old Arabidopsis) is recorded as “almost double the length of the control”. In test [3] (Arabidopsis vertical plate, 11 days after germination, control 1.8), the Primary root length worked out at 3.5 cm. In test [3] (Arabidopsis vertical plate, 11 days after germination, control 11), the Shoot biomass came out at 21 mg. In test [4] (7 days of growth in low phosphate, confirmed in two experimental repeats), the “Suppression of the SPX1 biomarker (GUS staining)” value is reported as “practically completely suppressed the SPX1 biomarker”. The “GUS (SPX1) stained area normalized to the number of seeds” value in test [4] (low phosphate, 50 μM, 7 days after germination, compare with low phosphate controls of same plate (Table 5 c3)) is reported as 26 pixels. This molecule also registered a Plant height in test [5] of 3.1 cm.

Values taken from patent publication US20240206469A1, “PHOSPHORUS USE EFFICIENCY ENHANCERS AS PLANT GROWTH PROMOTORS” (EUROCHEM ANTWERPEN, priority 2021, published 2024).
